In EPA's ToxValDB 9.5 (doi:10.2903/j.efsa.2010.1856):
Converted amounts (≈) assume the structure as drawn.

How the values were obtained:
Typhlodromus pyri = assay: LR50; higher = less toxic; settings: not reported; mortality
Aphidius rhopalosiphi = assay: LR50; higher = less toxic; settings: not reported; mortality
Oncorhynchus mykiss = settings: mortality
Colinus virginianus = settings: reproduction developmental
Anatidae = settings: short-term; oral; feed; mortality
Rattus norvegicus = settings: chronic; duration: 2 years; histopathology: nonneoplastic
Daphnia magna = settings: chronic/long-term; duration: 21 days; reproduction
Apis mellifera = settings: acute; duration: 48 hours; oral; unspecified; mortality
Phasianus sp. = settings: acute; oral; unspecified; mortality
Coturnix japonica = settings: acute, oral, mortality
Canidae = settings: chronic, duration: 1 years, oral, Dog Other

CC1OC(C)OC(C)OC(C)O1 (stereo not drawn) [2,4,6,8-Tetramethyl-1,3,5,7-tetroxocane]
LR50 (Typhlodromus pyri): > 350 g/ha
LR50 (Aphidius rhopalosiphi): > 350 g/ha
LC50 (Oncorhynchus mykiss; acute, duration: 96 hours): 75 µg/mL (≈ 426 µM)
NOEC (Oncorhynchus mykiss; chronic/long-term, duration: 21 days): 37.5 mg/L
NOEC (Colinus virginianus): 500 mg/kg-day
LC50 (Anatidae): 3450 mg/kg
LC50 (Tagia sp.; acute, duration: 14 days, mortality): > 1000 mg/kg
NOEC (Tagia sp.; chronic/long-term, reproduction): 32 mg/kg
NOAEL (Rattus norvegicus): 2 mg/kg-day
NOEC (Daphnia magna): 90 mg/L
LD50 (Apis mellifera): > 87.5 µg/piece
LD50 (Phasianus sp.): 262 mg/kg-day
LD50 (Anas platyrhynchos; acute, oral, unspecified, mortality): 196 mg/kg-day
NOEC (Anas platyrhynchos; reproductive): 175 mg/kg
LC50 (Coturnix japonica; diet): 3460 mg/kg
LD50 (Coturnix japonica): 170 mg/kg-day
NOAEL (Canidae; mortality): 10 mg/kg-day
NOAEL (Canidae; neurology): 30 mg/kg-day
